Laboratory results taken from patent US20230101743A1, “SUBSTITUTED TRIAZINE COMPOUNDS AND USES THEREOF” (MUSC FOUNDATION FOR RESEARCH DEVELOPMENT, priority 2020, published 2023).

Key:
[1] = tested on: Intracellular APOB; assay: Intracellular APOB protein by immunoblot; format: cell-based, human; details: 2 μg/mL, 24 hours
Protocol: G. Human iPSC-derived hepatocytes were treated with 2 μg/mL of DL-1 or equivalent concentration of DMSO for 24 hours. […] (A) APOB mRNA level was determined using real-time qPCR. (B) Intracellular APOB, LDLR, and HSP90 protein levels were determined via immunoblot. (C) Quantification of biological replicates of immunoblots on samples treated as in (B). Data are shown as mean±SEM of four replicates (n=4).
C. Human iPSC-derived hepatocytes (iPSC-Heps) were treated with 2 μg/mL of DL-1 or equivalent concentration of DMSO for 24 hours. In FIG. 7A, APOB mRNA level was determined using real-time qPCR. In FIG. 7B Intracellular APOB, LDLR, and HSP90 protein levels were determined via immunoblot; Quantification of biological replicates of immunoblots. […] In FIG. 12A LDL uptake assay was performed by pre-treating cells with 2 μg/mL of DL-1, 20 μM of Atorvastatin, and equivalent concentration of DMSO for 24 hours followed by 4 hours of pHrodo-LDL exposure; LDL endocytosis was determined and quantified by fluorescence image; data are shown as mean±SD of triplicates (n=3). […]
Immunoprecipitation of cell lysates was performed using protein G magnet beads (ThermoFisher) and anti-APOB (LDL20/17, Mabtech) antibodies. […] Expression levels were quantified via integrated intensity normalized by 5% of input of each sample. […] Signals were detected using HRP-conjugated secondary antibodies. […]

[2] = tested on: apolipoprotein B (APOB-100); assay: Secreted APOB ELISA in human iPSC-derived hepatocyte-like cells; format: cell-based
Protocol: D. Human iPSC-derived hepatocytes were treated with DL-1 with concentrations ranging from 0.0325 to 12 or 48 μg/mL for 24 hours. Pre-drug and Post-drug medium were collected for analysis. Albumin and APOB levels were determined via ELISA assay. All secreted proteins were compared to non-treated cells. […] Data are shown as mean±SEM of four replicates (n=4); * p<0.01.
E. Human iPSC-derived hepatocytes were treated with 2 μg/mL of DL-1 from 8 to 48 hours. Albumin, APOPA, and APOB level in the culture medium were determined via ELISA. All secreted proteins were compared to non-treated cells. In FIG. 5, accumulated APOB in the medium from different time-point was measured and normalized to albumin level. […]
F. Twenty-one compounds that are structurally similar to DL-1 were tested with the concentration of 2 μg/mL in human iPSC-derived hepatocytes for 24 hours. Secreted APOB levels were determined and compared to the DMSO-treated group. […] Data is shown as mean±SEM of replicates (n=8) and as quantification value of each derivative. […]
Differentiated human hepatocyte-like cells were treated with representative compounds of the invention (2 μg/mL) or equivalent amount of DMSO (0.5%) as the placebo group for 24 hours. […] The secreted level of apolipoprotein B (APOB-100), the core protein of LDL-C, were determined via enzyme-linked immunosorbent assay (ELISA). […]

## Sc1nc(S)nc(Nc2ccc(Nc3ccccc3)cc2)n1 (racemic) [DL-1, 6-{[4-(phenylamino)phenyl]amino}-1,3,5-triazine-2,4-dithiol]
[1]
  intracellular APOB protein level: no impact on APOB mRNA and intracellular protein levels
[2]; 2 μg/mL, 8 to 48 hours
  APOB level in culture medium, time course: reduces APOB level in a time-dependent manner
[2]; 0.0325 to 12 or 48 μg/mL, 24 hours
  APOB secretion level, dose-response: reduces APOB secretion level in a dose-response manner
